This is an account of results in patent US9468687B2, “Immuno gene therapy for treatment of cancer and hyperproliferative diseases” (priority 2004, dated 2016).

For assay [1], the system named is SCCVII squamous cell carcinoma. Put plainly: Subcutaneous squamous cell carcinoma (SCCVII) tumor growth. In kind it is in vivo, mouse. The conditions noted are these: pmIL-12/PPC 25 μg intratumoral weekly x4, two injections.
Description: The effect of local administration of pIL-12/PPC complexes on the growth of subcutaneously implanted squamous cell (SCCVII) carcinoma was examined. 4×10^5 squamous carcinoma cells in 100 μl were implanted sc on the right flank of female Female CH3 mice (6-9 weeks, 17-22 grams) The mIL-12 plasmid was complexed with PPC at a 11:1 N:P ratio and administered locally into the tumors at a DNA dose of 25 μg in an injection volume of 50 μl once every week for four weeks starting ˜11 days after tumor implantation. Treatment groups of 12 mice were used and tumor growth was monitored twice per week using caliper measurement.
For combination therapy both gene therapy and chemotherapy treatment were given as described above. Treatment groups of 12 mice were used and tumor growth was monitored twice per week using caliper measurement.
Assay [2] concerns ID8 peritoneal disseminated ovarian tumors. Put plainly: pIL-12/PPC plus paclitaxel in peritoneal disseminated ovarian tumors. In kind it is in vivo, mouse. As for the experimental part:
Intraperitoneal IL-12 gene therapy was combined with paclitaxel chemotherapy to enhance the therapeutic response to disseminated ovarian tumors in mice. The mice were injected intraperitoneally with 5×10^6 ID8 cells in a volume of 500 μl. The treatments were started when tumor burden (mouse weight) reached approximately 20 grams (˜21 days after injection of cells). The mice were injected intraperitoneally with 25 μg of pmIL-12 complexed with PPC at a 11:1 N:P ratio in a volume of 500 μl. The gene treatment was repeated after 7 days constituting a total of two injections (Day 1, 8) per the study. Paclitaxel (Taxol®) was administered only once (Day 0) by intravenous injection at a dose of 8 mg/kg dose in an injection volume of 250 μL. For combination therapy, both gene therapy and chemotherapy treatments were given as described above. Animals were periodically weighed to assess the effect of gene treatment on tumor burden. […] The inhibition of tumor burden by pmIL-12/PPC complexes was slightly higher than that of paclitaxel.

The subject of a further assay is CT26 tumors. The conditions noted are these: cited from earlier work.
The next assay deals with Renca tumors. The conditions noted are these: cited from earlier work.

Consider `O=P1(N(CCCl)CCCl)NCCCO1` (stereo not drawn) [cyclophosphamide], for which, in assay [1] (cyclophosphamide 200 mg/kg iv), the “tumor growth in combination study” value is reported as “only a partial inhibition of tumor growth”. Besides, the “animals that completely rejected the tumor (complete rejection rate)” value in assay [1] (cyclophosphamide iv) is 10%.

As for `CC(=O)O[C@H]1C(=O)[C@@]2(C)[C@H]([C@H](OC(=O)c3ccccc3)[C@]3(O)C[C@H](OC(=O)[C@H](O)[C@@H](NC(=O)c4ccccc4)c4ccccc4)C(C)=C1C3(C)C)[C@]1(OC(C)=O)CO[C@@H]1C[C@@H]2O` [paclitaxel], the peritoneal tumor burden result in assay [2] (pmIL-12 25 μg ip day 1, 8, paclitaxel 8 mg/kg iv day 0) was “tumor reduction”. Further, the survival result in assay [2] (pmIL-12/PPC ip, paclitaxel 8 mg/kg iv) is reported as “improved survival”.

As to IFN-α, the rejection rate in the assay on CT26 tumors was 0%. The tumor rejection with Renca tumors is recorded as 25%.
